From patent US12384772B2, “Inhibitors” (VIVORYON THERAPEUTICS N.V., priority 2017, dated 2025)
Read-outs that look alike come from different tables or passages of the source.

Target: Glutaminyl cyclase (QC) (Homo sapiens (Human), UniProt Q16769)
Assay: Glutaminyl cyclase assay, determination of IC50 values and calculation of Ki values (H-Gln-AMC substrate, pGAP auxiliary enzyme; pH 8.0 or pH 6.0)
Format: biochemical
Procedure: 10 mM compound stock solutions were prepared in DMSO. For IC50 determination compound stocks were serially diluted (1:3) in DMSO.
All measurements were performed with an EnSpire Perkin Elmer multimode reader using glutaminyl-7-amino-4-methylcoumarin (H-Gin-AMC) as substrate and recombinant pyroglutamyl aminopeptidase (pGAP) as auxiliary enzyme. Reactions were carried out at ambient temperature in black 96-well half area microplates. Each sample consisted of 1 μl test compound solution or solvent (DMSO) and 49 μl QC appropriately diluted in assay buffer (50 mM Tris/HCl, pH 8.0 or 50 mM MES buffer, pH=6.0). After a 10 min preincubation at ambient temperature the enzyme reaction was started by adding 50 μl of Gln-AMC-substrate/pGAP mixture in assay buffer. Final substrate concentrations were 50 and 200 μM for measurement at pH 8.0 or 6.0, respectively. Release of flourogenic AMC were recorded at excitation/emission wavelengths of 380/460 nm. Initial velocity of the enzyme reaction was calculated by linear regression of the first 10 data points using the Enspire Manager software. Final evaluation and calculation of IC50s were performed using GraphPad Prism software.
Ki-values were calculated according to the following formula: Ki=IC50/(1+[S]/Km), where: […]

[1] = pH 6, read-out: hQC Ki [μM] pH6
[2] = pH 8, read-out: hQC Ki [μM] pH8

Sequence of Glutaminyl cyclase (QC) (Q16769 29-361): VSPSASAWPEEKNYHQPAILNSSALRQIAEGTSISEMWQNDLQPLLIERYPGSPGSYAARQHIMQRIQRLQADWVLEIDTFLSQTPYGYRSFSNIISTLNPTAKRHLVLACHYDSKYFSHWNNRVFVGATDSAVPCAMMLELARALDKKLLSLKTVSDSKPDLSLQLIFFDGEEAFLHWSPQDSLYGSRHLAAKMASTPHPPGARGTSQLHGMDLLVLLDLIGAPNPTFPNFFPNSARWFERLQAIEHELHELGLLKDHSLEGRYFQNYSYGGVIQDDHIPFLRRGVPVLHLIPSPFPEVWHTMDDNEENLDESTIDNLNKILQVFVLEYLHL

SMILES	Ki [1] [µM]	Ki [2] [µM]
COc1ccc(-c2cccnc2NCc2ccc3[nH]cnc3c2)cc1 [O5, N-(1H-1,3-benzodiazol-5-ylmethyl)-3-(4-methoxyphenyl)pyridin-2-amine]	2.74	2.41
COc1ccc(-c2cnccc2NCc2ccc3[nH]cnc3c2)cc1 [O6, N-(1H-1,3-benzodiazol-5-ylmethyl)-3-(4-methoxyphenyl)pyridin-4-amine]	15.1	10.8
COc1ccc(-c2ccncc2NCc2ccc3[nH]cnc3c2)cc1 [O7, N-(1H-1,3-benzodiazol-5-ylmethyl)-4-(4-methoxyphenyl)pyridin-3-amine]	11.1	4.24
COc1ccc(-c2cncnc2NCc2ccc3[nH]cnc3c2)cc1 [O8, N-(1H-1,3-benzodiazol-5-ylmethyl)-5-(4-methoxyphenyl)pyrimidin-4-amine]		18.3
COc1ccc(-c2nccnc2NCc2ccc3[nH]cnc3c2)cc1 [O9, N-(1H-1,3-benzodiazol-5-ylmethyl)-3-(4-methoxyphenyl)pyrazin-2-amine]	1.9	2.21
COc1ccc(-c2cnccc2NCc2ccc3[nH]cnc3c2)cc1OC [O10, N-(1H-1,3-benzodiazol-5-ylmethyl)-3-(3,4-dimethoxyphenyl)pyridin-4-amine]	1.63	0.88
COc1ccc(-c2nccnc2NCc2ccc3[nH]cnc3c2)cc1OC [O12, N-(1H-1,3-benzodiazol-5-ylmethyl)-3-(3,4-dimethoxyphenyl)pyrazin-2-amine]	0.13	0.42
Fc1ccc(-c2nccnc2NCc2ccc3[nH]cnc3c2)cc1 [O15, N-(1H-1,3-benzodiazol-5-ylmethyl)-3-(4-fluorophenyl)pyrazin-2-amine]	10.5	11.7
c1ccc(Oc2ccc(-c3ccccc3NCc3ccc4[nH]cnc4c3)cc2)cc1 [O16, N-(1H-1,3-benzodiazol-5-ylmethyl)-2-(4-phenoxyphenyl)aniline]	4.34	2.11
c1ccc(-c2ccc(OC3CCCCC3)cc2)c(NCc2ccc3[nH]cnc3c2)c1 [O17, N-(1H-1,3-benzodiazol-5-ylmethyl)-2-[4-(cyclohexyloxy)phenyl]aniline]	2.03	4.17
CC(C)Oc1ccc(-c2ccccc2NCc2ccc3[nH]cnc3c2)cc1 [O19, N-(1H-1,3-benzodiazol-5-ylmethyl)-2-[4-(propan-2-yloxy)phenyl]aniline]	1.53	3.39
COc1ccc(-c2c(C)cccc2NCc2ccc3[nH]cnc3c2)cc1 [O20, N-(1H-1,3-benzodiazol-5-ylmethyl)-2-(4-methoxyphenyl)-3-methylaniline]	2.38	1.64
COc1ccc(-c2c(C)cccc2NCc2ccc3[nH]cnc3c2)cc1OC [O21, N-(1H-1,3-benzodiazol-5-ylmethyl)-2-(3,4-dimethoxyphenyl)-3-methylaniline]	0.43	0.42
Fc1cccc(NCc2ccc3[nH]cnc3c2)c1-c1ccc(Cl)cc1 [O22, N-(1H-1,3-benzodiazol-5-ylmethyl)-2-(4-chlorophenyl)-3-fluoroaniline]	4.89	6.83
COc1ccc(-c2c(F)cccc2NCc2ccc3[nH]cnc3c2)cc1OC [O23, N-(1H-1,3-benzodiazol-5-ylmethyl)-2-(3,4-dimethoxyphenyl)-3-fluoroaniline]	0.055	0.1
Fc1ccc(-c2c(F)cccc2NCc2ccc3[nH]cnc3c2)cc1 [O24, N-(1H-1,3-benzodiazol-5-ylmethyl)-3-fluoro-2-(4-fluorophenyl)aniline]	5.81	9.41
O=S(=O)(NCc1ccc2[nH]cnc2c1)c1ccc(F)cc1 [P1, N-[(1H-1,3-benzodiazol-5-yl)methyl]-4-fluorobenzene-1-sulfonamide]	38.3	24.7
